Assay: shake-flask (equal volumes, stirred); both phases assayed by HPLC
Conditions: 32 °C

SMILES	partition coefficient iso-octane / distilled water [concentration ratio]
CCCCCCCCCCCCN1CCN(C)C1=O	7350
CCCCCCCCCCN1CCN(C)C1=O	756
CCCCCCCCCCCCN1CCCCCC1=O	2004
CCCCCCCN1CCN(C)C1=O	24
